Drawing on US20260250251A1, “HETEROCYCLIC COMPOUNDS AS PI3Ka INHIBITORS” (Pikavation Therapeutics, Inc., priority 2022, published 2026), this text covers IC50 for 14 molecules.

Experiment [1] deals with SKBR3 (PIK3CA WT) cells, pSer473 AKT. Nature of the experiment: pS473 AKT assay in SKBR3 cells. The class given is cell-based. The settings on record: Homo sapiens, SK-BR-3, treated 2 h, read-out: SKBR3_IC50. Summed up: (§1)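 Cells exposed 2 h to a range of PI3Kα inhibitor concentrations, then paraformaldehyde-fixed and probed for pSer473 AKT with rabbit primary overnight at 4 °C and HRP anti-rabbit secondary. Chemiluminescent cell-based ELISA read-out; IC50 from concentration-response fitting.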

Experiment [2] deals with T47D (PIK3CA H1047R) cells, pSer473 AKT. Briefly: pS473 AKT assay in T47D cells. The settings on record: Homo sapiens, treated 2 h, read-out: T47D_IC50. The experiment is classed as cell-based. The essentials:
as §1

With `Cn1nc(N)c2c(Oc3cc(F)ccc3Cl)c(NC(=O)c3cc(F)cc(C(F)(F)F)c3)cc(C#CC3(N)CC3)c21` [Example 45, N-(3-Amino-7-((1-aminocyclopropyl)ethynyl)-4-(2-chloro-5-fluorophenoxy)-1-methyl-1H-indazol-5-yl)-3-fluoro-5-(trifluoromethyl)benzamide], the IC50 in experiment [1] and in experiment [2] was below 1000 nM each time.

As to `CS(=O)(=O)n1nc(N)c2c(Oc3cc(F)ccc3Cl)c(NC(=O)c3cc(F)cc(C(F)(F)F)c3)cc(Br)c21` [Example 81, N-(3-Amino-7-bromo-4-(2-chloro-5-fluorophenoxy)-1-(methylsulfonyl)-1H-indazol-5-yl)-3-fluoro-5-(trifluoromethyl)benzamide], the IC50 in experiment [1] was 1000 to 5000 nM; in experiment [2], below 1000 nM.

As for `Cn1nc(N)c2c(Oc3cc(F)ccc3Cl)c(NC(=O)c3cc(F)cc(C(F)(F)F)c3)cc(-c3cncnc3)c21` [Example 29, N-(3-Amino-4-(2-chloro-5-fluorophenoxy)-1-methyl-7-(pyrimidin-5-yl)-1H-indazol-5-yl)-3-fluoro-5-(trifluoromethyl)benzamide], the values for the IC50 in experiment [1] and in experiment [2] were 1000 to 5000 nM and below 1000 nM, respectively.

Consider `Cn1nc(N)c2c(Oc3cc(F)ccc3Cl)c(NC(=O)c3cc(F)cc(C(F)(F)F)c3)cc(-c3cnn(C4CCOC4)c3)c21` (stereo not shown) [Example 28, N-(3-Amino-4-(2-chloro-5-fluorophenoxy)-1-methyl-7-(1-(tetrahydrofuran-3-yl)-1H-pyrazol-4-yl)-1H-indazol-5-yl)-3-fluoro-5-(trifluoromethyl)benzamide], for which the IC50 in experiment [1] and in experiment [2] was below 1000 nM each time.

Regarding `C#Cc1cc(NC(=O)c2cc(F)cc(C(F)(F)F)c2)c(Oc2cc(F)ccc2Cl)c2c(N)nn(C)c12` [Example 47, N-(3-Amino-4-(2-chloro-5-fluorophenoxy)-7-ethynyl-1-methyl-1H-indazol-5-yl)-3-fluoro-5-(trifluoromethyl)benzamide], the results for the IC50 in experiment [1] and in experiment [2] were 1000 to 5000 nM and below 1000 nM, respectively.

On to `Cn1nc(N)c2c(Oc3cc(F)ccc3Cl)c(NC(=O)N3CCc4ccccc43)cc(Cl)c21` [Example 64, N-(3-Amino-7-chloro-4-(2-chloro-5-fluorophenoxy)-1-methyl-1H-indazol-5-yl)indoline-1-carboxamide], for which the IC50 in experiment [1] was 1000 to 5000 nM; in experiment [2] it was below 1000 nM.

Regarding `Cn1nc(N)c2c(Oc3cc(F)ccc3Cl)c(NC(=O)c3cc(F)cc(C(F)(F)F)c3)ccc21` [Example 7, N-(3-amino-4-(2-chloro-5-fluorophenoxy)-1-methyl-1H-indazol-5-yl)-3-fluoro-5-(trifluoromethyl)benzamide], the IC50 in experiment [1] and in experiment [2] was below 1000 nM each time.

As to `Cn1nc(N)c2c(Oc3cc(F)ccc3Cl)c(NC(=O)c3cc(F)cc(C(F)(F)F)c3)cc(C#CC3(C)COC3)c21` [Example 46, N-(3-Amino-4-(2-chloro-5-fluorophenoxy)-1-methyl-7-((3-methyloxetan-3-yl)ethynyl)-1H-indazol-5-yl)-3-fluoro-5-(trifluoromethyl)benzamide], the IC50 is 1000 to 5000 nM in experiment [1] and below 1000 nM in experiment [2].

Consider `Cn1nc(N)c2c(Oc3cc(F)ccc3Cl)c(NC(=O)c3cc(F)cc(C(F)(F)F)c3)cc(CCc3ccccn3)c21` [Example 77, N-(3-Amino-4-(2-chloro-5-fluorophenoxy)-1-methyl-7-(2-(pyridin-2-yl)ethyl)-1H-indazol-5-yl)-3-fluoro-5-(trifluoromethyl)benzamide], for which the results for the IC50 in experiment [1] and in experiment [2] were 1000 to 5000 nM and below 1000 nM, respectively.

On to `Cn1nncc1-c1cc(NC(=O)c2cc(F)cc(C(F)(F)F)c2)c(Oc2cc(F)ccc2Cl)c2c(N)nn(C)c12` [Example 30, N-(3-Amino-4-(2-chloro-5-fluorophenoxy)-1-methyl-7-(1-methyl-1H-1,2,3-triazol-5-yl)-1H-indazol-5-yl)-3-fluoro-5-(trifluoromethyl)benzamide], for which the IC50 in experiment [1] and in experiment [2] was below 1000 nM each time.

Turning to `Cn1nc(N)c2c(Oc3cc(F)ccc3Cl)c(NC(=O)c3cc(F)cc(C(F)(F)F)c3)cc(C#CC3CCCCN3)c21` (stereo not shown) [Example 78, N-(3-Amino-4-(2-chloro-5-fluorophenoxy)-1-methyl-7-(piperidin-2-ylethynyl)-1H-indazol-5-yl)-3-fluoro-5-(trifluoromethyl)benzamide], the IC50 in experiment [1] is 1000 to 5000 nM; in experiment [2], below 1000 nM.

Take `Cn1nc(N)c2c(Oc3cc(F)ccc3Cl)c(NC(=O)c3cc(F)cc(C(F)(F)F)c3)cc(C#CCO)c21` [Example 49, N-(3-Amino-4-(2-chloro-5-fluorophenoxy)-7-(3-hydroxyprop-1-yn-1-yl)-1-methyl-1H-indazol-5-yl)-3-fluoro-5-(trifluoromethyl)benzamide]: the IC50 in experiment [1] and in experiment [2] was below 1000 nM in each case.

For `Nc1n[nH]c2ccc(NC(=O)c3cc(F)cc(C(F)(F)F)c3)c(Nc3cc(F)ccc3Cl)c12` [Example 4, N-(3-Amino-4-((2-chloro-5-fluorophenyl)amino)-1H-indazol-5-yl)-3-fluoro-5-(trifluoromethyl)benzamide], the IC50 in experiment [1] is 5000 to 10000 nM; in experiment [2], below 1000 nM.

For the molecule `Nc1n[nH]c2ccc(NC(=O)N3CC(O)(C(F)(F)F)c4cc(F)ccc43)c(Oc3cc(F)ccc3Cl)c12` (stereo not shown) [Example 19, N-(3-Amino-4-(2-chloro-5-fluorophenoxy)-1H-indazol-5-yl)-5-fluoro-3-hydroxy-3-(trifluoromethyl)indoline-1-carboxamide], the IC50 in experiment [1] is 1000 to 5000 nM; in experiment [2], below 1000 nM.
